In patent US20210078958A1, “QUINAZOLINE DERIVATIVE AND USE THEREOF” (MEDSHINE DISCOVERY INC., priority 2017, published 2021):

Key:
[1] = tested on: BT-474 cell; experiment: inhibitory activity on cell proliferation (Cell-Titer-Glo), BT-474; assay type: cell-based; details: Homo sapiens, BT-474, 72 h; incubation for 3 days, Cell-Titer-Glo
Description: Purpose of the assay: to detect the inhibitory activity of the test compounds on cell proliferation.
Principle of the assay: the luciferase in a Cell-Titer-Glo reagent produces oxidized luciferin with luciferin, oxygen and ATP as reaction substrates, and releases energy in the form of light. Since the luciferase reaction requires ATP, the total amount of light generated by the reaction is proportional to the total amount of ATP that reflects cell viability.
Cell Titer-Glo cell viability assay kit with luminescence (Promega #G7573)
According to the schematic diagram of the cell seed plate, cells were seeded in a 384- or 96-well plate at a density of 1000 cells per well and 25 μL per well, and 25 μL of PBS was added to the wells near edge of the place where no cells were seeded.
(1) The stock solution of the compounds has a concentration of 10 mM, and the compounds were diluted with DMSO to an initial concentration of 4 mM. The compounds were added to the plate with stock solution of compounds, 9 μL per well.
(2) The compounds were diluted with an ECHO liquid workstation, where 125 nL of compounds were added to each well of the cell plate, 125 nL of DMSO was added to each of the cell well in columns 2 and 23, and 125 nL of DMSO was added to each PBS well in columns 1 and 24.
2.3 After addition of the compounds, the cell plate was centrifuged at 1000 rpm for 1 min, and then placed in a 37° C., 5% CO2 incubator for incubation for 3 days.
The cell plate was taken out from the incubator and equilibrated at room temperature for 30 minutes. 25 μL of Cell-Titer-Glo reagent was added to each well, shaken for one minute to allow well mixed, and centrifuged at 1000 rpm for 1 minute. After 10 minutes, the plate was read on PerkinElmer Envision, and the […] reading time was set to 0.2 second.

[2] = tested on: subcutaneous xenograft tumor of human gastric cancer NCI-N87 cells; experiment: Assay Example 5: in vivo pharmacodynamics, NCI-N87 xenograft; parameters: species or system BALB/c nude mouse; details: 0.5 mg/kg
Description: Purpose of the assay: to evaluate the in vivo efficacy of test compounds disclosed herein on subcutaneous xenograft tumor of human gastric cancer NCI-N87 cells in a BALB/c nude mouse model.
Animals of the assay: female BALB/c nude mice, 6-8 weeks old, weighing 18-22 grams; supplier: shanghai sippr bk laboratory animals Ltd.
Human gastric cancer NCI-N87 cells were cultured in monolayer in vitro. The culture conditions were RPMI-1640 medium plus 10% fetal bovine serum, 100 U/mL penicillin, 100 μg/mL streptomycin, 37° C., 5% CO2. The passaging was performed by conventional digestion with trypsin-EDTA twice a week. When the cell saturation was 80%-90%, the cells were collected, counted and inoculated.
0.2 mL (10×10^6) of NCI-N87 cells (PBS+Matrigel, 1:1) were inoculated subcutaneously on the right back of each mouse. When the average tumor volume reached 156 mm^3, administration to each group was started.
The test compounds were formulated into a 0.05 mg/mL clear solution in the solvents of 10% NMP (N-methylpyrrolidone)+10% ethylene glycol stearate+80% water.
The assay index is to investigate whether tumor growth is inhibited, delayed or cured. Tumor diameter was measured twice a week with a vernier caliper. The calculation formula of tumor volume is: V=0.5a×b^2, wherein a and b represent the long and short diameters of tumor, respectively.
The antitumor efficacy of the compounds were evaluated by TGI (%) or tumor proliferation rate T/C (%). TGI (%) reflects the tumor growth inhibition rate. TGI (%) is calculated as follows: TGI (%)=[1−(average tumor volume at the end of administration for a certain treatment group−average tumor volume at the beginning of administration for this treatment group)/(average tumor volume at the end of treatment for a solvent control group−average tumor volume at the beginning of administration for this solvent control group)]×100%.
Tumor proliferation rate T/C (%): the calculation formula is as follows: T/C (%)=average tumor volume at the end of administration for a certain treatment group/average tumor volume at the end of treatment for the solvent control group×100%.
Statistical analysis included the mean and standard error (SEM) of tumor volume at each time point in each group (See Table 5-1 for specific data). […] The comparison between two groups was analyzed by T-test, and the comparison among three or more groups was analyzed by one-way ANOVA. […] All data analysis was carried out with SPSS 17.0. p<0.05 was considered a significant difference.

Row | SMILES | IC50 [1] | Tumor volume (mm^3) (Day 21) ([2]; NCI-N87 xenograft, Mean + SEM) | T/C (%) ([2]; day 21) | TGI (%) ([2]; day 21)
1 | C=CC(=O)N1[C@@H]2CC[C@H]1C[C@H](Oc1cc3c(Nc4ccc(Cl)c(Cl)c4F)ncnc3cc1OC)C2 [Example 8] | 0.39 nM | – | – | –
2 | C=CC(=O)N1[C@@H]2CC[C@H]1C[C@H](Nc1cc3c(Nc4ccc(Cl)c(Cl)c4F)ncnc3cc1OC)C2 [Example 38] | – | 63 ± 10 mm^3 | 10.69% | 119.41%
